Data: patent publication US9592223B2, “Small molecule inhibitors of MALT1” (Cornell University, priority 2012, dated 2017)

Tests used:
[1] = test system: ABC-DLBCL cell lines HBL-1 and TMD8 vs GCB-DLBCL cell line OCI-Ly1; experiment: Cell proliferation of selected hits and analogs, ATP-based metabolic luminescent assay; set-up: species or system human
Source text: MALT1 activity plays an important role in selectively maintaining proliferation of ABC-DLBCL cell lines (Ngo et al., 2006). Accordingly ABC and GCB-DLBCL cell lines present differential sensitivity to MALT1 cleavage inhibition by the peptide Z-VRPR-FMK (Ferch et al., 2009; Hailfinger et al., 2009; Rebeaud et al., 2008). To determine whether candidate small molecules display a similar profile two ABC-DLBCL cell lines, HBL-1 and TMD8, and one GCB-DLBCL cell line, OCI-Ly1, were exposed to increasing concentrations of the nineteen selected molecules. Cell proliferation was measured 48 hr after exposure to a single dose of compound using an ATP-based metabolic luminescent assay (summarized in FIG. 1C).
A total of 704 analog compounds from available libraries with similarity score ≧70% (Tanimoto similarity functions) were screened by LZ-MALT1 fluorescence assay.
Cell proliferation was determined by ATP quantification using a luminescent method (CellTiter-Glo, Promega, Madison, Wis.) and Trypan blue dye-exclusion (Sigma, St. Louis, Mo.). […]
DLBCL cell lines were grown in exponential growth conditions during the 48 hr of treatment. Cell proliferation was determined by ATP quantification using a luminescent method (CellTiter-Glo, Promega, Madison, Wis.) and Trypan blue dye-exclusion (Sigma, St. Louis, Mo.). […]

[2] = test system: MALT1^C464A (inactive mutant) NF-κB activation; experiment: NF-κB reporter assay in 293T cells, PMA/ionomycin, BCL10 and MALT1 C464A; assay type: cell-based; conditions: pre-treatment
Source text: Antigen receptor-mediated NF-κB signaling partly depends on MALT1 activity (Ruefli-Brasse et al., 2003; Ruland et al., 2003). […] First, 293T cells were transfected with the NF-κB reporter vector (NF-κB)5-luc2CP-pGL4 (harboring 5 copies of the NF-κB consensus response element and a destabilized Firefly luciferase) and TK-pRL control together with plasmids expressing BCL10 and either MALT1^WT or MALT1^C464A. […] HBL-1 was transfected with the reporter construct (NF-κB)5-luc2CP-pGL4 and TK-pRL control.
Reporter assays were performed in 293T cells seeded at a density of 2×10^5 cells per well of a 12-well dish. 100 ng of (NF-κB)5-Luc2CP-pGL4 and 10 ng of TK-Renilla internal control plasmid were cotransfected along with 25 ng of the indicated plasmids (MIGR1-MALT1^WT or MIGR1-MALT1^C464A and pcDNA4-Flag-Bcl10) using Lipofectamine 2000 (Invitrogen). Lysates were submitted to dual luciferase assays following manufacturer's protocol (Promega). In HBL-1, 5 μg of (NF-κB)5-Luc2CP-pGL4 and 50 ng of TK-Renilla internal control plasmid per 5×10^6 cells were cotransfected using nucleofection (Amaxa, Lonza, Basel, Switzerland). Forty-eight hours after transfection, cells were plated at a density of 5×10^4 cells per well of a 24-well plate and treated as indicated. Lysates were submitted to dual luciferase assays following manufacturer's protocol (Promega).

[3] = test system: HBL-1 cells; experiment: MI-2 intracellular concentration in HBL-1 cells by LC-MS; assay type: in vitro ADME, human
[4] = test system: OCI-Ly1; experiment: CFSE dilution assay by flow cytometry, GCB-DLBCL line; assay type: cell-based, human; conditions: viable cells at 48, 72 and 96 h
Description: (§1) Cell proliferation was examined using the CFSE dilution assay by flow cytometry on viable cells at 48, 72 and 96 h. […] Trypan blue exclusion and apoptosis assessed by Annexin V^+ DAPI^− flow cytometry was measured every 48 hr for a period of 14 days.
CFSE covalently labels long-lived intracellular molecules with carboxyfluorescein. Following each cell division, fluorescent molecules dilute in daughter cells, allowing comparative study of the kinetics of cell division. Cells were stained with DAPI (Sigma), followed by flow cytometry. DAPI^neg cells were gated for analysis.

[5] = test system: OCI-Ly1 cells; experiment: Trypan blue exclusion and Annexin V+ DAPI- apoptosis over 14 days, control line; assay type: cell-based, human; conditions: treated daily at the higher doses used for TMD8, 14 days
Description: as §1
Apoptosis was assessed by AnnexinV-APC/DAPI (BD Pharmingen) staining followed by flow cytometry.

[6] = Toxicity 1: increasing daily IP doses over 10 days; assay type: in vivo, C57BL/6 mice; conditions: daily IP 0.05 to 25 mg/kg over 10 days, cumulative 51.1 mg/kg
Source text: Brain, heart, lung, liver, kidney, bowel, spleen, thymus and bone marrow tissues were examined. […] Myeloid to erythroid ratio was 4-5:1. Megakaryocytes were normal in number and distribution. There was no fibrosis nor increased number of blasts or lymphocytes. Complete peripheral blood counts, biochemistry and liver function tests were normal (Table 2).

Structure (SMILES): COCCOc1nc(-c2ccc(Cl)c(Cl)c2)n(-c2ccc(NC(=O)CCl)cc2)n1 [MI-2]
- GI25 concentrations ([1]; 48 hr): high nanomolar range
- suppression of cell proliferation, ABC-DLBCL vs GCB-DLBCL cell lines ([1]; 48 hr after a single dose, increasing concentrations): significant selective dose-dependent suppression of ABC-DLBCL cells
- NF-κB induction by PMA/ionomycin stimulation [2]: did not significantly affect
- intracellular concentration ([3]; 0.2 μM treated HBL-1 cells, 2 hr): 5 µM
- free drug within the cells ([3]; 0.2 μM, by 12 hr): virtually no detectable free MI-2
- cell proliferation (CFSE dilution) [4]: did not affect
- viability and apoptosis [5]: no effect
- physical indicators of sickness [6]: no evidence of lethargy, weight loss
